Measurements reported in ChEMBL document CHEMBL4828703, “Structure-activity relationship study of THZ531 derivatives enables the discovery of BSJ-01-175 as a dual CDK12/13 covalent inhibitor with efficacy in Ewing sarcoma” (Eur J Med Chem, 2021).
Calls of active or inactive are those of the source. The rule behind the calls is not given here.

Experiments:
CDK12/Cyclin K = CDK12/Cyclin K (Homo sapiens, UniProt Q9NYV4); assay: Inhibition of human recombinant CDK12/CyclinK assessed as reduction in substrate phosphorylation using His-c-Myc as substrate preincubated with enzyme for 5 mins followed by substrate addition for 15 mins in presence of [gamma 32P-ATP] by radioactive kinase assay; format: protein-complex assay
[1] = molecular target: Cyclin-dependent kinase 13/Cyclin-K (Homo sapiens, UniProt Q14004); assay: Inhibition of human recombinant CDK13/CyclinK assessed as reduction in substrate phosphorylation using His-c-Myc as substrate preincubated with enzyme for 5 mins followed by substrate addition for 15 mins in presence of [gamma 32P-ATP] by radioactive kinase assay; format: protein-complex assay
Chain of Cyclin-dependent kinase 13/Cyclin-K (Q14004 whole entry): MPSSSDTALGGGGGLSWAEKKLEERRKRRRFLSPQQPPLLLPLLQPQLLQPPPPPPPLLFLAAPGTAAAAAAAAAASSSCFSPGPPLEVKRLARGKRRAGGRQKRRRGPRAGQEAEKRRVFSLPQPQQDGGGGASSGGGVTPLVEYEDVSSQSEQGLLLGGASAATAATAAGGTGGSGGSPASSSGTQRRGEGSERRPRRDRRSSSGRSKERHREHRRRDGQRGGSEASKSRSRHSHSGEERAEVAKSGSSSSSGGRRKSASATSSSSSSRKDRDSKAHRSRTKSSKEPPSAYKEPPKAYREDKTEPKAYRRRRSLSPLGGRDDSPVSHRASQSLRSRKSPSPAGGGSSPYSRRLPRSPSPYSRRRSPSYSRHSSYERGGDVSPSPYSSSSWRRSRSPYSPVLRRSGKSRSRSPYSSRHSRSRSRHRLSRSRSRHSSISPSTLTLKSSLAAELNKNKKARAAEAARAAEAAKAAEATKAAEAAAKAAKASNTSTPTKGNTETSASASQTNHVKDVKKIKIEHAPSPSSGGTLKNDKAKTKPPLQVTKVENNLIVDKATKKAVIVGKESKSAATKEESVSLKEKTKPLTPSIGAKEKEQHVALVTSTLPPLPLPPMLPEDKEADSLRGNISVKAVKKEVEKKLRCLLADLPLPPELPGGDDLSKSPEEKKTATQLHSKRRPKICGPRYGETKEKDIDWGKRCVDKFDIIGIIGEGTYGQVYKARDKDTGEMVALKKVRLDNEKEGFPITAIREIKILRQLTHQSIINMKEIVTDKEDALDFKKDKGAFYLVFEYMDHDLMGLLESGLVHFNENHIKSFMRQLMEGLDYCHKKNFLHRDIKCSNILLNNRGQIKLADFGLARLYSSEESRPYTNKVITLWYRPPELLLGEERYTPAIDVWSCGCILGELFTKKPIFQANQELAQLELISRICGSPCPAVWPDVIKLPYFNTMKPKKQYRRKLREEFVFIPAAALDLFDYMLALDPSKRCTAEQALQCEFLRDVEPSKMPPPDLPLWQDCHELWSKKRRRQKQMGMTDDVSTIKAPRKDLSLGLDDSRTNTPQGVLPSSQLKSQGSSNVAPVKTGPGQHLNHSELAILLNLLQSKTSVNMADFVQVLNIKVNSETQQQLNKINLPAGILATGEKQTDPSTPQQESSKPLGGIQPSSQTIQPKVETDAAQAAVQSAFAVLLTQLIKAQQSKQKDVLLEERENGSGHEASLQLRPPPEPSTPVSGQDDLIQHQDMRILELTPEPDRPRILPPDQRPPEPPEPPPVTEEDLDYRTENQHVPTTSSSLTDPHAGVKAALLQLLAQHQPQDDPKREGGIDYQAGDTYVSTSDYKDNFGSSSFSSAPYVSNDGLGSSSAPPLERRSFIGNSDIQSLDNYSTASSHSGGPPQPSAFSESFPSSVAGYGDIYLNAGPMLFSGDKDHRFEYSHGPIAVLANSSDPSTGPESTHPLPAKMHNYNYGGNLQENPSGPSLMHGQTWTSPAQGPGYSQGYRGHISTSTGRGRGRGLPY
Chain of Cyclin-dependent kinase 13/Cyclin-K (O75909 whole entry, further chain): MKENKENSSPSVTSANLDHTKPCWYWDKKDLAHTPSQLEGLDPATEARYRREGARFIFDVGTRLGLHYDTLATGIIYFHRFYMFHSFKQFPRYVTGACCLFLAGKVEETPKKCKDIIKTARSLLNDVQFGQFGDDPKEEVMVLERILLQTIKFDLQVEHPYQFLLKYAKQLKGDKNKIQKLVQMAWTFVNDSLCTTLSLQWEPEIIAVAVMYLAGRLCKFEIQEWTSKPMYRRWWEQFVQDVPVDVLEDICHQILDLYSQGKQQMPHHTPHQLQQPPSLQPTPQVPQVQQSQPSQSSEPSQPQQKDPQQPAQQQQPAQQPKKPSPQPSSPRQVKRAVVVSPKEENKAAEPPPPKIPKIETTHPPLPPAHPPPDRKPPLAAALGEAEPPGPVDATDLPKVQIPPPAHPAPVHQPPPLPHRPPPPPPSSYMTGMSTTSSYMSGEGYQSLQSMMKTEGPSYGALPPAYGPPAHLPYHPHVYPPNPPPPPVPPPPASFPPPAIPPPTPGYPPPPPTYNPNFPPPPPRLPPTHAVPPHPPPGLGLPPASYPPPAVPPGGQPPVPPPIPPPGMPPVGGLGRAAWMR

[2] = Metabolic stability in mouse liver microsomes assessed as half life; format: ADME, Microsome
CDK2/Cyclin A2 = CDK2/Cyclin A2 (Homo sapiens, UniProt P24941); assay: Inhibition of CDK2/Cyclin A (unknown origin); format: protein-complex assay
[3] = molecular target: Cyclin-dependent kinase 7/ cyclin H (Homo sapiens, UniProt P50613); assay: Inhibition of CDK7/Cyclin H (unknown origin); format: protein-complex assay
Chain of Cyclin-dependent kinase 7/ cyclin H (P51946 whole entry): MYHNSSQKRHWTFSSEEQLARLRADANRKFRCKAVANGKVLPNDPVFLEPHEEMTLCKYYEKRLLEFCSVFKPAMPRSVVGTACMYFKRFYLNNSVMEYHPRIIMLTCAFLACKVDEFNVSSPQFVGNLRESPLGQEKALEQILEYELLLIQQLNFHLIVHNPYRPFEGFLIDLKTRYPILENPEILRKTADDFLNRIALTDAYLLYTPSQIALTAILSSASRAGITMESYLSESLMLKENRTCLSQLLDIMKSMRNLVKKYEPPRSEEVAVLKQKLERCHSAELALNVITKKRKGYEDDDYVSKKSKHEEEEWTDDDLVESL
Chain of Cyclin-dependent kinase 7/ cyclin H (P50613 whole entry): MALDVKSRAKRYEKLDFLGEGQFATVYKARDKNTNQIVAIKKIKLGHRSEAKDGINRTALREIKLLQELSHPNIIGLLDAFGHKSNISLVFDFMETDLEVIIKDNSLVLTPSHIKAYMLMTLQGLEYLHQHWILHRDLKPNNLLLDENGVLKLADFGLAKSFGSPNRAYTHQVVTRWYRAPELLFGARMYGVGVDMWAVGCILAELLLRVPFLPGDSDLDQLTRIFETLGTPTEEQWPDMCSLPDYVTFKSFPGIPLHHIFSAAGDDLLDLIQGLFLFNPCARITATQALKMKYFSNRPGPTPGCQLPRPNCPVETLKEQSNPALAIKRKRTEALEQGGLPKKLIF

CDK9/cyclin T1 = CDK9/cyclin T1 (Homo sapiens, UniProt P50750); assay: Inhibition of CDK9/Cyclin T1 (unknown origin); format: protein-complex assay
Chain of CDK9/cyclin T1 (O60563 whole entry): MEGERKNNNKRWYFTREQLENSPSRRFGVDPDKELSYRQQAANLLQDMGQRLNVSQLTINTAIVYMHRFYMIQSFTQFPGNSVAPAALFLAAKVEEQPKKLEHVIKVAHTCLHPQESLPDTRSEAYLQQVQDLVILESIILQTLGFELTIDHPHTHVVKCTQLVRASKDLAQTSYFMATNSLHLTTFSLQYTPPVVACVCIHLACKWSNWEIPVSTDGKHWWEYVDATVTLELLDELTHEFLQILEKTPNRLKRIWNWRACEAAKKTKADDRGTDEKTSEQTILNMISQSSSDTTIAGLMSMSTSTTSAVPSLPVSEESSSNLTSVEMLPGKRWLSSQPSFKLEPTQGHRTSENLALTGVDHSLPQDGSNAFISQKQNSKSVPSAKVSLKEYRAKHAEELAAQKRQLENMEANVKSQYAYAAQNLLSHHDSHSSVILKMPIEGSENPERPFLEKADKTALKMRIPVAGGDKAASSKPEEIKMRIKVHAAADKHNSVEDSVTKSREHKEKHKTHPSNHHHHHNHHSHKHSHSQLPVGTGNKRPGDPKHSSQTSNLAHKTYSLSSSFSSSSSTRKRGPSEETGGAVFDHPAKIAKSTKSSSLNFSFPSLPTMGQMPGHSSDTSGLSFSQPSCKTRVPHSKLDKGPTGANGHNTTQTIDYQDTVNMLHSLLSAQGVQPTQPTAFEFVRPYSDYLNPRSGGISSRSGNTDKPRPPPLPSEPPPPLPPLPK
Chain of CDK9/cyclin T1 (P50750 whole entry): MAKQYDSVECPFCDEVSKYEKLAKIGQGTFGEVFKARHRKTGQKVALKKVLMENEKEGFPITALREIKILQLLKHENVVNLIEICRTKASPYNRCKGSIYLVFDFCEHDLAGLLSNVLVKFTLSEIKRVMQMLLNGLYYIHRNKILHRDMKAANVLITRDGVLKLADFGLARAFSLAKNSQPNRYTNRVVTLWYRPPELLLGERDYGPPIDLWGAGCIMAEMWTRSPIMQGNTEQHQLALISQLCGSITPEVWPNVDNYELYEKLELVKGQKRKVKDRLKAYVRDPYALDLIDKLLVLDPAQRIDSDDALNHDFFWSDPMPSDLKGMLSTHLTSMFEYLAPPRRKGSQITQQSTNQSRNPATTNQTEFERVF

[4] = Antiproliferative activity against human TC71 cells assessed as reduction in cell viability; format: functional, cell-based; conditions: TC-71
[5] = molecular target: Cyclin-dependent kinase 12/13 (Homo sapiens) (UniProt Q14004+Q9NYV4); assay: Inhibition of CDK12/13 in human jurkat cells assessed as reduction in RNA polymerase 2 CTD phosphorylation at Ser2 residue at 1 uM measured after 6 hrs by immunoblotting analysis; format: cell-based
[6] = Antiproliferative activity against human Kelly cells harboring CDK12 C1039F mutant assessed as reduction in cell viability incubated for 72 hrs by CellTiter-Glo assay; format: functional, cell-based
[7] = molecular target: Cyclin-dependent kinase 7 (Homo sapiens) (UniProt P50613); assay: Inhibition of THZ1-biotin binding from CDK7 in human Jurkat cells at 1 uM incubated for 6 hrs by CyclinH antibody based competitive pull down assay; format: cell-based
Chain of Cyclin-dependent kinase 7 (Homo sapiens) (P50613 whole entry): as the sequence (P50613 whole entry) above

[8] = Downregulation of RNA polymerase 2 CTD phosphorylation at Ser5 residue in human Jurkat cells at 1 uM incubated for 6 hrs by immunoblotting analysis; format: functional
[9] = Downregulation of RNA polymerase 2 CTD phosphorylation at Ser7 residue in human Jurkat cells at 1 uM incubated for 6 hrs by immunoblotting analysis; format: functional
[10] = Downregulation of RNA polymerase 2 in human Jurkat cells at 1 uM measured after 6 hrs by immunoblotting analysis; format: functional
[11] = Antiproliferative activity against human Kelly cells harboring wild type CDK12 assessed as reduction in cell viability incubated for 72 hrs by CelTiter-Glo assay; format: functional, cell-based

In the case of `CN(C)C/C=C/C(=O)Nc1ccc(N2CCC[C@@H](Nc3ncc(Cl)c(-c4c[nH]c5ccccc45)n3)C2)nc1`, the IC50 (CDK12/Cyclin K) is reported as 0.0354 µM and the IC50 [1] is reported as 0.186 µM.

For `C=CC(=O)Nc1ccc(C(=O)N2CCC[C@@H](Nc3ncc(Cl)c(-c4c[nH]c5ccccc45)n3)C2)nc1`, the IC50 (CDK12/Cyclin K) was 0.232 µM, the IC50 [1] was 0.799 µM and the t1/2 [2] was 3.5 min.

In the case of `CN(C)C/C=C/C(=O)Nc1ccc(C(=O)N2CCC[C@@H](Nc3ncc(C(F)(F)F)c(-c4c[nH]c5ccccc45)n3)C2)cc1`, the IC50 (CDK2/Cyclin A2) is reported as 10 µM, the IC50 [3] is reported as greater than 10 µM and the IC50 (CDK9/cyclin T1) is reported as greater than 10 µM. The IC50 (CDK12/Cyclin K) was greater than 10 µM and the IC50 [1] was 10 µM.

`CN(C)C/C=C/C(=O)Nc1ccc(C(=O)N2CCC[C@@H](Nc3ncc(Cl)c(-c4c[nH]c5ccccc45)n3)C2)nc1` showed an IC50 (CDK12/Cyclin K) of 0.765 µM and an IC50 [1] of 1.64 µM.

`Nc1ccc(OC2CCC[C@@H](Nc3ncc(Cl)c(-c4cn(S(=O)(=O)c5ccccc5)c5ccccc45)n3)C2)cc1` (stereo partly specified) gave a t1/2 [2] of 5.4 min.

For `CN(C)C/C=C/C(=O)Nc1ccc(C(=O)N2CCC[C@@H](Nc3ncc(Cl)c(-c4c[nH]c5ccccc45)n3)C2)cc1`, the IC50 [4] was 0.0659 µM, the IC50 (CDK2/Cyclin A2) was 1.3 µM and the IC50 (CDK9/cyclin T1) was 0.193 µM. For the same compound, the IC50 (CDK12/Cyclin K) was 0.483 µM, the IC50 [1] was 0.657 µM and the inhibition [5] was 76%. For the same compound, the IC50 [6] was 0.254 µM, the inhibition [7] was “Active” and the inhibition at 1 µM [8] was 0%. For the same compound, the inhibition at 1 µM [9] was 42%, the inhibition at 1 µM [10] was 0% and the IC50 [11] was 0.093 µM.

Compound `CN(C)C/C=C/C(=O)Nc1ccc(O[C@@H]2CCC[C@@H](Nc3ncc(Cl)c(-c4c[nH]c5ccccc45)n3)C2)c(F)c1` has an IC50 (CDK12/Cyclin K) of 0.857 µM and an IC50 [1] of 0.484 µM.

`CN(C)C/C=C/C(=O)Nc1ccc(C(=O)N2CC[C@@H](Nc3ncc(Cl)c(-c4c[nH]c5ccccc45)n3)C2)cc1` showed an IC50 (CDK2/Cyclin A2) of 0.0493 µM, an IC50 (CDK9/cyclin T1) of 0.0142 µM and an IC50 (CDK12/Cyclin K) of 0.0687 µM. It also gave an IC50 [1] of 0.0502 µM.

Compound `CN(C)C/C=C/C(=O)Nc1ccc(C(=O)N2CCC[C@@H](Nc3ncc(C4CC4)c(-c4c[nH]c5ccccc45)n3)C2)cc1` has an IC50 (CDK2/Cyclin A2) greater than 10 µM, an IC50 [3] of 0.625 µM and an IC50 (CDK9/cyclin T1) greater than 10 µM. For the same compound, the IC50 (CDK12/Cyclin K) was 9.98 µM and the IC50 [1] was greater than 10 µM.

Work on `CN(C)C/C=C/C(=O)Nc1ccc(C(=O)N2CCC[C@@H](Nc3ncc(Br)c(-c4c[nH]c5ccccc45)n3)C2)cc1` yielded an IC50 (CDK2/Cyclin A2) of 1 µM, an IC50 [3] of 0.115 µM and an IC50 (CDK9/cyclin T1) of 0.184 µM. For the same compound, the IC50 (CDK12/Cyclin K) was 0.226 µM and the IC50 [1] was 0.573 µM.

With `CN(C)C/C=C/C(=O)Nc1ccc(C(=O)N2CCCC[C@@H](Nc3ncc(Cl)c(-c4c[nH]c5ccccc45)n3)C2)cc1` the IC50 (CDK2/Cyclin A2) was 0.339 µM, the IC50 [3] was 0.388 µM and the IC50 (CDK9/cyclin T1) was 1.22 µM. The IC50 (CDK12/Cyclin K) was 1.45 µM and the IC50 [1] was 1.83 µM.

For `CN(C)C/C=C/C(=O)Nc1ccc(N2CCC[C@@H](Nc3ncc(Cl)c(-c4c[nH]c5ccccc45)n3)C2)cc1`, the IC50 (CDK2/Cyclin A2) was 0.623 µM, the IC50 [3] was 0.0695 µM and the IC50 (CDK9/cyclin T1) was 0.155 µM. For the same compound, the IC50 (CDK12/Cyclin K) was 0.167 µM and the IC50 [1] was 0.178 µM.

`CN(C)C/C=C/C(=O)Nc1ccc(O[C@H]2CCC[C@@H](Nc3ncc(Cl)c(-c4c[nH]c5ccccc45)n3)C2)cc1` showed an IC50 (CDK2/Cyclin A2) of 0.65 µM, an IC50 [3] of 0.112 µM and an IC50 (CDK9/cyclin T1) of 0.132 µM. The IC50 (CDK12/Cyclin K) was 0.181 µM and the IC50 [1] was 0.182 µM.
